Structures are written as SMILES.

Chain of Recombinant human factor D (P00746 26-253): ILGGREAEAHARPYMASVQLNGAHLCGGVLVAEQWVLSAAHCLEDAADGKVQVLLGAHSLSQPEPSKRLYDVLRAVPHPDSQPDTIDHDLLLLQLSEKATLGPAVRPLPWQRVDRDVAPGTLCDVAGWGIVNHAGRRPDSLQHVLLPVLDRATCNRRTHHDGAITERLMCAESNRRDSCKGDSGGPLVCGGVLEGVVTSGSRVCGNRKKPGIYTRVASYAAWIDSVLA

The assay concerns the target Recombinant human factor D (Homo sapiens (Human), UniProt P00746). Kind of assay: Human Complement Factor D Assay: Method 1. Format: biochemical. Particulars: 10 nM factor D, substrate Z-Lys-thiobenzyl, fluorescence readout, read-out: IC50 (μM), Factor D inhibition. The protocol: Human Complement Factor D Assay: Method 1
Recombinant human factor D (expressed in E. coli and purified using standard methods) at 10 nM concentration is incubated with test compound at various concentrations for 1 hour at room temperature in 0.1 M Hepes buffer, pH 7.5, containing 1 mM MgCl2, 1 M NaCl and 0.05% CHAPS. A synthetic substrate Z-Lys-thiobenzyl and 2,4-dinitrobenzenesulfonyl-fluoresceine are added to final concentrations of 200 μM and 25 μM, respectively. The increase in fluorescence is recorded at excitation of 485 nm and emission at 535 nm in a microplate spectrofluorimeter. IC50 values are calculated from percentage of inhibition of complement factor D-activity as a function of test compound concentration.
The term IC50 denotes the midpoint of a concentration-inhibition curve. Take `CC(=O)c1nn(CC(=O)N2[C@@H]3C[C@@H]3C[C@H]2C(=O)NC(C)C)c2ccc(OCc3ncccn3)cc12` [Example 20, (1R,3S,5R)-2-{2-[3-Acetyl-5-(pyrimidin-2-ylmethoxy)-indazol-1-yl]-acetyl}-2-aza-bicyclo[3.1.0]hexane-3-carboxylic acid isopropyl amide]: the IC50 turned out to be 0.328 µM. For the molecule `CC(C)(C)CCNC(=O)[C@@H]1C[C@H]2C[C@H]2N1C(=O)Nc1cn(C(N)=O)c2ccccc12` [Example 21, (1R,3S,5R)-2-Aza-bicyclo[3.1.0]hexane-2,3-dicarboxylic acid 2-[(1-carbamoyl-1H-indol-3-yl)-amide]3-[(3,3-dimethyl-butyl)-amide]], the IC50 turned out to be 0.058 µM. Turning to `C[Si](C)(C)CCNC(=O)[C@@H]1C[C@H]2C[C@H]2N1C(=O)Nc1cn(C(N)=O)c2ccccc12` [Example 22, (1R,3S,5R)-2-Aza-bicyclo [3.1.0]hexane-2,3-dicarboxylic acid 2-[(1-carbamoyl-1H-indol-3-yl)-amide] 3-[(2-trimethylsilanyl-ethyl)-amide]], the half-maximal inhibitory concentration (IC50) stood at 0.057 µM. With `NC(=O)n1cc(NC(=O)N2[C@@H]3C[C@@H]3C[C@H]2C(=O)NCCOC(F)(F)F)c2ccccc21` [Example 23, (1R,3S,5R)-2-Aza-bicyclo [3.1.0]hexane-2,3-dicarboxylic acid 2-[(1-carbamoyl-1H-indol-3-yl)-amide] 3-[(2-trifluoromethoxy-ethyl)-amide]], the concentration for half-maximal inhibition (IC50) amounted to 0.427 µM. On to `CCNC(=O)[C@@H]1C[C@H]2C[C@H]2N1C(=O)Nc1cn(C(N)=O)c2ccccc12` [Example 24, (1R,3S,5R)-2-Aza-bicyclo [3.1.0]hexane-2,3-dicarboxylic acid 2-[(1-carbamoyl-1H-indol-3-yl)-amide] 3-ethylamide], for which the half-inhibitory concentration (IC50) stood at 1.75 µM. With `NC(=O)n1cc(NC(=O)N2[C@@H]3C[C@@H]3C[C@H]2C(=O)NCCCOC(F)(F)F)c2ccccc21` [Example 25, (1R,3S,5R)-2-Aza-bicyclo [3.1.0]hexane-2,3-dicarboxylic acid 2-[(1-carbamoyl-1H-indol-3-yl)-amide] 3-[(3-trifluoromethoxy-propyl)-amide]], the IC50 was determined as 0.912 µM. In the case of `NC(=O)n1cc(NC(=O)N2[C@@H]3C[C@@H]3C[C@H]2C(=O)NCCCCOC(F)(F)F)c2ccccc21` [Example 26, (1R,3S,5R)-2-Aza-bicyclo [3.1.0]hexane-2,3-dicarboxylic acid 2-[(1-carbamoyl-1H-indol-3-yl)-amide] 3-[(4-trifluoromethoxy-butyl)-amide]], the IC50 came to 1.39 µM. For `NC(=O)n1cc(NC(=O)N2[C@@H]3C[C@@H]3C[C@H]2C(=O)NCCOC(F)(F)C(F)(F)F)c2ccccc21` [Example 27, (1R,3S,5R)-2-Aza-bicyclo [3.1.0]hexane-2,3-di arboxylic acid 2-[(1-carbamoyl-1H-indol-3-yl)-amide] 3-[(2-pentafluoroethyloxy-ethyl)-amide]] the value was 1.97 µM; for `C[Si](C)(C)CCNC(=O)[C@@H]1C[C@H]2C[C@H]2N1C(=O)Cn1nc(C(N)=O)c2ccccc21` [Example 28, 1-{2-oxo-2-[(1R,3S,5R)-3-(2-trimethylsilanyl-ethylcarbamoyl)-2-aza-bicyclo[3.1.0]hex-2-yl]-ethyl}-1H-indazole-3-carboxylic acid amide], 0.065 µM; for `CC(=O)c1nn(CC(=O)N2[C@@H]3C[C@@H]3C[C@H]2C(=O)NCCC(C)(C)C)c2ncccc12` [Example 29, (1R,3S,5R)-2-[2-(3-Acetyl-pyrazolo[3,4-b]pyridin-1-yl)-acetyl]-2-aza-bicyclo[3.1.0] hexane-3-carboxylic acid (3,3-dimethyl-butyl)-amide], 0.227 µM. As for `CC(=O)c1nn(CC(=O)N2[C@@H]3C[C@@H]3C[C@H]2C(=O)NCCC(C)C)c2ncccc12` [Example 30, (1R,3S,5R)-2-[2-(3-Acetyl-pyrazolo[3,4-b]pyridin-1-yl)-acetyl]-2-aza-bicyclo[3.1.0] hexane-3-carboxylic acid (3-methyl-butyl)-amide], the IC50 is 0.324 µM. `NC(=O)c1nn(CC(=O)N2[C@@H]3C[C@@H]3C[C@H]2C(=O)NCC(F)F)c2ccccc12` [Example 32, 1-{2-[(1R,3S,5R)-3-(2,2-Difluoro-ethylcarbamoyl)-2-aza-bicyclo[3.1.0]hex-2-yl]-2-oxo-ethyl}-1H-indazole-3-carboxylic acid amide]: the half-inhibitory concentration (IC50) was found to be 0.874 µM. For `CC(C)(C)C(O)CNC(=O)[C@@H]1C[C@H]2C[C@H]2N1C(=O)Cn1nc(C(N)=O)c2ccccc21` (stereo partly drawn) [Example 33, 1-{2-[(1R,3S,5R)-3-(2-Hydroxy-3,3-dimethyl-butylcarbamoyl)-2-aza-bicyclo [3.1.0]hex-2-yl]-2-oxo-ethyl}-1H-indazole-3-carboxylic acid amide] the value was 0.271 µM; for `CC(C)(C)C(=O)CNC(=O)[C@@H]1C[C@H]2C[C@H]2N1C(=O)Cn1nc(C(N)=O)c2ccccc21` [Example 34, 1-{2-[(1R,3S,5R)-3-(3,3-Dimethyl-2-oxo-butylcarbamoyl)-2-aza-bicyclo[3.1.0]hex-2-yl]-2-oxo-ethyl}-1H-indazole-3-carboxylic acid amide], 0.192 µM; for `CC(C)(C)C[C@@H](CO)NC(=O)[C@@H]1C[C@H]2C[C@H]2N1C(=O)Cn1nc(C(N)=O)c2ccccc21` [Example 35, 1-{2-[(1R,3S,5R)-3-((S)-1-Hydroxymethyl-3,3-dimethyl-butylcarbamoyl)-2-aza-bicyclo[3.1.0]hex-2-yl]-2-oxo-ethyl}-1H-indazole-3-carboxylic acid amide], 0.593 µM.

For the molecule `C[C@H](CC(C)(C)C)NC(=O)[C@@H]1C[C@H]2C[C@H]2N1C(=O)Cn1nc(C(N)=O)c2ccccc21` [Example 36, 1-{2-Oxo-2-[(1R,3S,5R)-3-((R)-1,3,3-trimethyl-butylcarbamoyl)-2-aza-bicyclo[3.1.0]hex-2-yl]-ethyl}-1H-indazole-3-carboxylic acid amide], the IC50 amounted to 0.113 µM. `COC[C@H](CC(C)(C)C)NC(=O)[C@@H]1C[C@H]2C[C@H]2N1C(=O)Cn1nc(C(N)=O)c2ccccc21` [Example 37, 1-{2-[(1R,3S,5R)-3-((S)-1-Methoxymethyl-3,3-dimethyl-butylcarbamoyl)-2-aza-bicyclo[3.1.0]hex-2-yl]-2-oxo-ethyl}-1H-indazole-3-carboxylic acid amide]: the half-inhibitory concentration (IC50) amounted to 0.443 µM. As for `CC(=O)c1nn(CC(=O)N2[C@@H]3C[C@@H]3C[C@H]2C(=O)NCCC(F)(F)F)c2cnccc12` [Example 39, (1R,3S,5R)-2-[2-(3-Acetyl-pyrazolo[3,4-c]pyridin-1-yl)-acetyl]-2-aza-bicyclo [3.1.0]hexane-3-carboxylic acid (3,3,3-trifluoro-propyl)-amide], the half-maximal inhibitory concentration (IC50) is 5.32 µM.

On to `CC(=O)c1nn(CC(=O)N2[C@@H]3C[C@@H]3C[C@H]2C(=O)NCC(O)C(F)(F)F)c2ncccc12` (stereo partly drawn) [Example 40, (1R,3S,5R)-2-[2-(3-Acetyl-pyrazolo[3,4-b]pyridin-1-yl)-acetyl]-2-aza-bicyclo [3.1.0]hexane-3-carboxylic acid (3,3,3-trifluoro-2-hydroxy-propyl)-amide], for which the half-inhibitory concentration (IC50) was 10.8 µM. To `NC(=O)c1nn(CC(=O)N2[C@@H]3C[C@@H]3C[C@H]2C(=O)NCCF)c2ccccc12` [Example 41, 1-{2-[(1R,3S,5R)-3-(2-Fluoro-ethylcarbamoyl)-2-aza-bicyclo[3.1.0]hex-2-yl]-2-oxo-ethyl}-1H-indazole-3-carboxylic acid amide] belongs 1.35 µM; to `CC(C)(C)C[C@H](CO)NC(=O)[C@@H]1C[C@H]2C[C@H]2N1C(=O)Cn1nc(C(N)=O)c2ccccc21` [Example 42, 1-{2-[(1R,3S,5R)-3-((R)-1-Hydroxymethyl-3,3-dimethyl-butylcarbamoyl)-2-aza-bicyclo[3.1.0]hex-2-yl]-2-oxo-ethyl}-1H-indazole-3-carboxylic acid amide], 5.36 µM. Consider `CC(=O)c1nn(CC(=O)N2[C@@H]3C[C@@H]3C[C@H]2C(=O)NCC[Si](C)(C)C)c2cnccc12` [Example 43, (1R,3S,5R)-2-[2-(3-Acetyl-pyrazolo[3,4-c]pyridin-1-yl)-acetyl]-2-aza-bicyclo[3.1.0]hexane-3-carboxylic acid (2-trimethylsilanyl-ethyl)-amide], for which the 50% inhibitory concentration (IC50) was found to be 0.323 µM. Take `CC(C)(C)C(F)CNC(=O)[C@@H]1C[C@H]2C[C@H]2N1C(=O)Cn1nc(C(N)=O)c2ccccc21` (stereo partly drawn) [Example 44, 1-{2-[(1R,3S,5R)-3-(2-Fluoro-3,3-dimethyl-butylcarbamoyl)-2-aza-bicyclo[3.1.0]hex-2-yl]-2-oxo-ethyl}-1H-indazole-3-carboxylic acid amide]: the IC50 worked out at 0.384 µM.

For the origin of these results see patent US9388199B2, “Pyrrolidine derivatives and their use as complement pathway modulators” (priority 2012, dated 2016).
